Assay results published in patent publication US4046914A, “Therapeutically active substituted saturated and mono-and polyunsaturated alkyl-glycerylethers” (Astra Nutrition AB, priority 1975, dated 1977).

Test system: He La cells
Assay: growth of He La cells (cell counts in Burker chamber)
Assay type: cell-based
Experimental: Hank's solution containing 0,5 % hydrolysate of lactalbumin, 7 % calf serum and with 7 ml 0,15 % sodium bicarbonate and 20-40.000 I.U. of penicillin and streptomycin added per 100 ml was used for the cultivation of the He La cells. pH was 7,4 at the beginning of the experiment. The medium was changed 2 times per week. A suspension of He La cells was obtained by treatment with versene. The glycerol ethers were dissolved in the medium in concentrations of 1, 5, 25 and 100 μg/ml. 1,5 ml of cell suspension, containing 10^6 cells/ml, was added to 18,5 ml medium. The growth was registered by counting the cells in a Burker chamber.

## CCCCCCCCCCCCCCC(COCC(O)CO)OC (centres unmarked) [AII, 1-O-(2-methoxyhexadecyl)-glycerol]
25 μg/ml
  cytostatic action: acted clearly cytostatically
  time to completely suppressed growth: about 15 days
25 μg/ml, 14 days at 37° C
  effect on He La cell growth: growth inhibiting and later on a cell killing effect
Table II, 5 μg/ml, 1 day, controls 54
  Cell counts: 201
Table II, 5 μg/ml, 3 days, controls 122
  Cell counts: 137
Table II, 5 μg/ml, 6 days, controls 186
  Cell counts: 225
Table II, 25 μg/ml, 1 day, controls 54
  Cell counts: 206
Table II, 25 μg/ml, 3 days, controls 122
  Cell counts: 91
Table II, 25 μg/ml, 6 days, controls 186
  Cell counts: 148
Table II, 100 μg/ml, 1 day, controls 54
  Cell counts: 157
Table II, 100 μg/ml, 3 days, controls 122
  Cell counts: All cells dead
Table II, 100 μg/ml, 6 days, controls 186
  Cell counts: All cells dead
Table III, 5 μg/ml, 1 day, controls 78
  Cell counts: 63
Table III, 5 μg/ml, 2 days, controls 98
  Cell counts: 113
Table III, 5 μg/ml, 6 days, controls 228
  Cell counts: 205
Table III, 5 μg/ml, 10 days, controls 359
  Cell counts: 407
Table III, 25 μg/ml, 1 day, controls 78
  Cell counts: 64
Table III, 25 μg/ml, 2 days, controls 98
  Cell counts: 154
Table III, 25 μg/ml, 6 days, controls 228
  Cell counts: 160
Table III, 25 μg/ml, 10 days, controls 359
  Cell counts: 272
Table IV, 1 μg/ml, 2 days, controls 138
  Cell counts: 121
Table IV, 1 μg/ml, 5 days, controls 172
  Cell counts: 271
Table IV, 1 μg/ml, 8 days, controls 520
  Cell counts: 598
Table IV, 1 μg/ml, 11 days, controls 757
  Cell counts: 546
Table IV, 1 μg/ml, 14 days, controls 649
  Cell counts: 557
Table IV, 5 μg/ml, 2 days, controls 138
  Cell counts: 113
Table IV, 5 μg/ml, 5 days, controls 172
  Cell counts: 200
Table IV, 5 μg/ml, 8 days, controls 520
  Cell counts: 488
Table IV, 5 μg/ml, 11 days, controls 757
  Cell counts: 546
Table IV, 5 μg/ml, 14 days, controls 649
  Cell counts: 637
Table IV, 25 μg/ml, 2 days, controls 138
  Cell counts: 107
Table IV, 25 μg/ml, 5 days, controls 172
  Cell counts: 107
Table IV, 25 μg/ml, 8 days, controls 520
  Cell counts: 241
Table IV, 25 μg/ml, 11 days, controls 757
  Cell counts: 112
Table IV, 25 μg/ml, 14 days, controls 649
  Cell counts: 0
Table V, 1 μg/ml, 3 days, controls 210
  Cell counts: 293
Table V, 1 μg/ml, 6 days after transfer, controls 176
  Cell counts: 169
Table V, 1 μg/ml, 8 days, controls 510
  Cell counts: 498
Table V, 5 μg/ml, 3 days, controls 210
  Cell counts: 246
Table V, 5 μg/ml, 6 days after transfer, controls 176
  Cell counts: 136
Table V, 5 μg/ml, 8 days, controls 510
  Cell counts: 517
